These results are taken from patent publication US20120053148A1, “INHIBITORS OF HEPATITIS C VIRUS” (GILEAD SCIENCES, INC., priority 2010, published 2012).

SMILES strings stand for the structures.

For one assay, the system named is HCV Replicon IB. Nature of the assay: HCV replicon assay in Huh-7 cells, genotype 1b (Rluc luciferase readout). Type of assay: cell-based, hepatitis C virus. As to conditions: HCV1B replicon, Huh-7 cells, 3 days; read-out: EC50_HCV1B_.
Consider `Cc1cc(-c2nnc(NCC[C@H](C)O)s2)nc2c(C(C)(C)C)cc(C3CC3)cc12` [Compound 403], for which the EC50 stood at 6.52 nM.

Regarding `Cc1cc(-c2nnc(N[C@H]3CC[C@@](C)(O)CC3)o2)nc2c(C(C)(C)C)cc(OCC(F)(F)F)cc12` [Compound 496], the EC50 amounted to 13.7 nM.

On to `COC[C@]1(O)C[C@H](Nc2nnc(-c3cc(C)c4cc(OCC(F)(F)F)cc(C(C)(C)C)c4n3)o2)C1` [Compound 504], for which the EC50 came to 9.86 nM.

The same assay, now with this note: Hepatitis C virus, 72 h; 10 uM; 1b-Rluc replicon, Huh-7 cells, 3 days; read-out: Inhibition @ 10 uM in 1b-Rluc.
Regarding `Cc1cc(C(=O)NCC2(C)COC2)nc2c(C(F)(F)F)cc(C3CC3)cc12` [Compound 103], the inhibition at 10 µM was found to be 96.1%.

For `CCCCNc1nnc(-c2cc(C)c3cc(C4CC4)cc(C(F)(F)F)c3n2)o1` [Compound 244], the inhibition at 10 µM was found to be 100%.

Turning to `CC(=O)N(C)c1cc(C(F)(F)F)c2nc(C(=O)NCc3ccccn3)cc(C)c2c1` [Compound 180], the inhibition at 10 µM came to 65.5%.

As for `Cc1cc(C(=O)NCC2CC2)nc2c(C(F)(F)F)cc(C3CC3)cc12` [Compound 102], the inhibition at 10 µM was 99.7%.

As for `Cc1cc(C(=O)NCc2ncccn2)nc2c(C(F)(F)F)cc(C3CC3)cc12` [Compound 90], the inhibition at 10 µM amounted to 100%.

On to `Cc1cc(C(=O)N/C=C/Cc2ccccc2)nc2c(C(F)(F)F)cc(-c3ccccc3)cc12` [Compound 171], for which the inhibition at 10 µM turned out to be 92.5%.

For `Cc1cc(-c2nnc(NCC3OCCO3)o2)nc2c(C(F)(F)F)cc(OCC(F)(F)F)cc12` [Compound 280], the inhibition at 10 µM was determined as 99.9%.

With `Cc1cc(-c2nnc(NCCO)o2)nc2c(C(F)(F)F)cc(C3CC3)cc12` [Compound 255], the inhibition at 10 µM stood at 99.4%.

For `Cc1cc(-c2nnc(NCCCN3CCCCC3)o2)nc2c(C(F)(F)F)cc(C3CC3)cc12` [Compound 256], the inhibition at 10 µM came to 99.4%.

Consider `Cc1cc(C(=O)NCc2ccccn2)nc2c(C(F)(F)F)cc(C3CCCC3)cc12` [Compound 150], for which the inhibition at 10 µM was found to be 99%.

Turning to `Cc1cc(-c2nnc(NCCCN3CCOCC3)s2)nc2c(C(F)(F)F)cc(C3CC3)cc12` [Compound 298], the inhibition at 10 µM is 88%.

For `CCC(=O)CNC(=O)c1cc(N)c2cc(C3CC3)cc(C(F)(F)F)c2n1` [Compound 220], the inhibition at 10 µM was found to be 100%.

With `O=C(NCc1ccccn1)c1cc(Cl)c2cc(OC(F)(F)F)cc(C(=O)O)c2n1` [Compound 241], the inhibition at 10 µM is 7.94%.

For the compound `Cc1cc(C(=O)NC2CNC(C)(C)COC2)nc2c(C(F)(F)F)cc(C3CC3)cc12` (stereo not drawn) [Compound 134], the inhibition at 10 µM was 93.1%.

For the compound `Cc1cc(-c2nnc(NCC(=O)N(C)C)o2)nc2c(C(C)(C)C)cc(C3CC3)cc12` [Compound 281], the inhibition at 10 µM worked out at 99.8%.

As for `Cc1cc(C(=O)NCc2ccccn2)nc2c(C(F)(F)F)cc(C3(C)CC3)cc12` [Compound 138], the inhibition at 10 µM stood at 99%.

`Cc1cc(-c2nnc(NCCCO)s2)nc2c(C(F)(F)F)cc(C3CC3)cc12` [Compound 286]: the inhibition at 10 µM is 99.9%.

`Cc1cccc(CNC(=O)c2cc(C)c3cc(C4CC4)cc(C(F)(F)F)c3n2)n1` [Compound 83]: the inhibition at 10 µM came to 99.4%.

In the case of `Cc1cc(C(=O)NCc2ccccn2)nc2c(C(F)(F)F)cc(OC(F)F)cc12` [Compound 187], the inhibition at 10 µM amounted to 99.9%.

Consider `Cc1cc(-c2nnc(NCC3COCCN3)o2)nc2c(C(F)(F)F)cc(C3CC3)cc12` (stereo not drawn) [Compound 252], for which the inhibition at 10 µM was found to be 92.7%.

`Cc1cc(C(=O)NC[C@@H]2CC(F)(F)CCN2)nc2c(C(F)(F)F)cc(OC(F)F)cc12` (single isomer, unassigned) [Compound 202]: the inhibition at 10 µM came to 99.5%.

For `CC#Cc1cc(C(F)(F)F)c2nc(C(=O)NCc3ccccn3)cc(C)c2c1` [Compound 148], the inhibition at 10 µM was 99.5%.

Turning to `CC(C)=Cc1cc(C(F)(F)F)c2nc(C(=O)NCc3ccccn3)cc(C)c2c1` [Compound 139], the inhibition at 10 µM amounted to 99.7%.

Turning to `COc1cc(C(F)(F)F)c2nc(-c3nnc(NCC4OCCO4)o3)cc(C)c2c1` [Compound 278], the inhibition at 10 µM stood at 99.9%.

As for `O=C(NCc1ccccn1)c1cc(Cl)c2cc(OC(F)F)cc(C(F)(F)F)c2n1` [Compound 194], the inhibition at 10 µM was 99.5%.

For the compound `CC(=O)c1cc(C(F)(F)F)c2nc(C(=O)NCc3ccccn3)cc(C)c2c1` [Compound 160], the inhibition at 10 µM is 93.5%.

On to `CCc1cc(C(F)(F)F)c2nc(C(=O)NCc3ccccn3)cc(C)c2c1` [Compound 158], for which the inhibition at 10 µM was 98.9%.

Staying with this assay, now noted: Hepatitis C virus, Huh-7, 72 h, HCV1B replicon, Huh-7 cells, 3 days; read-out: EC50_HCV1B_.
`CCCCNc1nnc(-c2cc(N)c3cc(C4CC4)cc(C(C)(C)C)c3n2)s1` [Compound 376]: the EC50 is 0.86 nM.

Take `Cc1cc(-c2nnc(NCc3ncc[nH]3)o2)nc2c(C(C)(C)C)cc(C3CC3)cc12` [Compound 394]: the EC50 came to 1130 nM.

Turning to `Nc1cc(-c2nnc(NCCCO)s2)nc2c(C(F)(F)F)cc(C3CC3)cc12` [Compound 375], the EC50 was 9.56 nM.

Regarding `Cc1cc(-c2nnc(N[C@H]3C[C@](O)(CO)C3)o2)nc2c(C(C)(C)C)cc(OCC(F)(F)F)cc12` [Compound 499], the EC50 was found to be 16.8 nM.

On to `CC(C)(C)c1cc(C2CC2)cc2c(N)cc(C(=O)NC[C@@H]3CSCN3)nc12` [Compound 336], for which the EC50 was 4.45 nM.

For the compound `Cc1cc(-c2nnc(N[C@H]3C[C@@H](O)C3)s2)nc2c(C(C)(C)C)cc(OCC(F)(F)F)cc12` [Compound 518], the EC50 was 51.3 nM.

For the compound `Cc1cc(-c2nnc(Nc3cccnc3)o2)nc2c(C(C)(C)C)cc(OCC(C)(C)O)cc12` [Compound 537], the EC50 was found to be 69.1 nM.

`Cc1cc(C(=O)NC[C@@H]2CC3(CN2)OCCO3)nc2c(C(C)(C)C)cc(OCC(F)(F)F)cc12` [Compound 510]: the EC50 was 9.8 nM.

On to `Cc1cc(-c2nnc(NC3CS(=O)(=O)C3)o2)nc2c(C(C)(C)C)cc(OCC(F)(F)F)cc12` [Compound 506], for which the EC50 came to 62.5 nM.

On to `Cc1cc(-c2nnc(N[C@H]3CCOC3)o2)nc2c(C(C)(C)C)cc(OCC(F)(F)F)cc12` [Compound 451], for which the EC50 came to 2.45 nM.

`Cc1cc(-c2nnc(NCC3OCCS3)o2)nc2c(C(C)(C)C)cc(OCC(F)(F)F)cc12` (stereo not drawn) [Compound 479]: the EC50 stood at 1.14 nM.

As to `Cc1cc(-c2nnc(NCC3OCCO3)o2)nc2c(OC(C)(C)C)cc(C3CC3)cc12` [Compound 548], the EC50 is 37.1 nM.

`Cc1cc(-c2nnc(N[C@H]3C[C@@](O)(CO)C3)o2)nc2c(C(C)(C)C)cc(OCC(F)(F)F)cc12` [Compound 500]: the EC50 amounted to 7.57 nM.

As to `Cc1cc(OC(F)(F)F)c2nc(C(=O)NCc3ncccn3)cc(C)c2c1` [Compound 446], the EC50 turned out to be 523 nM.

Consider `Nc1cc(C(=O)NC[C@H]2CC(F)(F)CCN2)nc2c(C(F)(F)F)cc(OC(F)F)cc12` [Compound 315], for which the EC50 was 83.9 nM.

For the compound `Cc1cc(-c2nnc(N[C@H]3C[C@@H](O)C3)o2)nc2c(C(C)(C)C)cc(C3CC3)cc12` [Compound 421], the EC50 turned out to be 3.24 nM.

`Cc1cc(-c2nnc(NC3CCNC3)o2)nc2c(C(C)(C)C)cc(C3CC3)cc12` (stereo not drawn) [Compound 399]: the EC50 is 888 nM.

In the case of `Cc1cc(OC(F)(F)F)c2nc(C(=O)NCc3cnccn3)cc(C)c2c1` [Compound 445], the EC50 was determined as 257 nM.

Take `COC(C)(C)c1cc(C2CC2)cc2c(C)cc(-c3nnc(NCC4OCCO4)o3)nc12` [Compound 545]: the EC50 is 7.68 nM.

With `Cc1cc(-c2nnc(N[C@H]3CC[C@H](O)C3)o2)nc2c(C(C)(C)C)cc(OCC(F)(F)F)cc12` (racemic) [Compound 477], the EC50 was 2.22 nM.

Turning to `CC(C)(C)c1cc(OCC(F)(F)F)cc2c(Cl)cc(-c3nnc(NCC4OCCO4)o3)nc12` [Compound 522], the EC50 was 5.85 nM.

As to `CC(C)(C)c1cc(C2CC2)cc2c(Cl)cc(-c3nnc(Nc4ccccc4)o3)nc12` [Compound 349], the EC50 stood at 26.9 nM.

In the case of `Cc1cc(-c2nnc(NC3CC(C)(O)C3)o2)nc2c(C(C)(C)C)cc(OCC(F)(F)F)cc12` (stereo not drawn) [Compound 466], the EC50 came to 0.88 nM.

For the compound `Cc1cc(-c2nnc(NCC3OCCS3(=O)=O)o2)nc2c(C(C)(C)C)cc(OCC(F)(F)F)cc12` (stereo not drawn) [Compound 483], the EC50 came to 1.72 nM.

For the compound `CC(C)(C)c1cc(C2CC2)cc2c(N)cc(-c3nnc(NCC(F)(F)CO)o3)nc12` [Compound 372], the EC50 stood at 1.95 nM.

On to `Cc1cc(-c2nnc(N[C@H]3C[C@@](O)(CO)C3)o2)nc2c(C(C)(C)C)cc(C3CC3)cc12` [Compound 514], for which the EC50 came out at 11.2 nM.

For `CNC(=O)[C@@H]1CSC(c2cc(C)c3cc(OC(F)F)cc(C(F)(F)F)c3n2)=N1` [Compound 341], the EC50 stood at 3530 nM.

For `CCC(O)CNC(=O)c1cc(N)c2cc(C3CC3)cc(C(C)(C)C)c2n1` (stereo not drawn) [Compound 326], the EC50 turned out to be 13.8 nM.

On to `Cc1cc(-c2nnc(N[C@H]3C[C@](O)(CCF)C3)o2)nc2c(C(C)(C)C)cc(OCC(F)(F)F)cc12` [Compound 482], for which the EC50 came out at 2.96 nM.

On to `Cc1cc(-c2nnc(NCC3OCCO3)o2)nc2c(C(C)(C)F)cc(C3CC3)cc12` [Compound 546], for which the EC50 was 7.48 nM.

With `Cc1cc(-c2nnc(NCC3OCCO3)o2)nc2c(S(C)(=O)=O)cc(C3CC3)cc12` [Compound 547], the EC50 came out at 185 nM.

On to `Cc1cc(-c2nnc(N[C@H]3C[C@](O)(C(F)S(=O)(=O)c4ccccc4)C3)o2)nc2c(C(C)(C)C)cc(OCC(F)(F)F)cc12` (stereo partly drawn) [Compound 481], for which the EC50 was 2880 nM.

For `Cc1cc(-c2nnc(N[C@H]3CC[C@@](O)(CF)C3)o2)nc2c(C(C)(C)C)cc(OCC(F)(F)F)cc12` [Compound 492], the EC50 is 19.3 nM.

For the compound `Cc1cc(-c2nnc(N[C@H]3C[S@+]([O-])C3)o2)nc2c(C(C)(C)C)cc(OCC(F)(F)F)cc12` [Compound 508], the EC50 came out at 24.3 nM.

The assay is the same for the next values; noted with them: Hepatitis C virus, Huh-7, 72 h; read-out: EC50_HCV1B_.
In the case of `CC(C)(C)c1cc(C2CC2)cc2c(NC(=O)CN)cc(-c3nnc(NC4CCCC4)o3)nc12` [Compound 360], the EC50 came to 44.1 nM.

The same assay, now with this note: Hepatitis C virus, Huh-7, 72 h; read-out: Inhibition @ 10 uM in 1b-Rluc.
Regarding `Cc1cc(-c2nnc(Nc3cccc(F)c3)o2)nc2c(C(F)(F)F)cc(C3CC3)cc12` [Compound 271], the inhibition at 10 µM worked out at 100%.
